The results in this text go back to US11844350B2, “Plant growth regulation” (Syngenta Participations AG, priority 2017, dated 2023).

In the experiment the test system is rice (Oryza sativa L.) varieties ADT45. The experiment in a line: Plant growth regulation field trial in rice, India (lodging, plant height, heat stress symptoms). Type of experiment: in vivo. How it is done: Field trials were setup during the hot season in Annanagar and Kumbakonam in India. Local rice (Oryza sativa L.) varieties ADT45 was mechanically transplanted at four plants per hill with a plant spacing of 16 cm and a row spacing of 30 cm. All trials were performed in good level of water management. Fertilizer application, and weed, insect and disease control were carried out in accordance with the best local practice across the trial area. Commercial treated seeds were used (with no neonicotinoid compounds present).
The trial design was a randomized bloc design, with a plot size of 40 m^2 (12 rows, each […] and 10 m long); each trial had four replicates.
Overall trial quality was very high: there was no insect damage and no disease pressure or weeds; the plots were very homogenous. Heat stress level was low to medium with 5-10% empty spikelets in the untreated control.

Each structure is given as a SMILES string.

As for `COc1cccc(Nc2nc(F)nc3[nH]cnc23)c1` [Formula (Ia)], the “Lodging (%)” value runs as follows: (10 g ai/ha, applied at panicle initiation (BBCH 30)) 29.0%; (20 g ai/ha, applied at BBCH 30) 56.0%. Besides, for the setting “result in words”, the “Lodging compared to the untreated control” value was “significantly reduces lodging”.
